# Reference: patent US20240002404A1, “SALT OF PYRROLOPYRIMIDINE COMPOUND, CRYSTALLINE FORM THEREOF, AND APPLICATION THEREOF” (GUANGZHOU JOYO PHARMATECH CO., LTD, priority 2020, published 2024)
# Where a name gives a salt, the structure may show the parent alone. Read-outs that look alike come from different tables or passages of the source.
# Experiments:
# in vitro = settings: human, Caco-2, pH 7.4
# Protocol: The transport buffer solution was HBSS (Hanks' balanced salt solution) and 10 mM HEPES [N-(2-hydroxyethyl)piperazine-N-(2-ethanesulfonic acid) solution], with a pH value of 7.40±0.05; Caco-2 cells were purchased from ATCC.
# Caco-2 cells were seeded at 1×10^5 cells/cm^2 in 96-well BD insert plates of polyethylene terephthalate (PET), and the medium was refreshed every 4-5 days until day 21-28 to form a confluent monolayer. Test compounds were tested in a two-way format at 2 μM in duplicate. Digoxin was added at 10 μM in the two-way format, and nadolol and metoprolol were added at 2 μM in the two-way format. Final concentration of DMSO was adjusted to less than 1%. The plates were incubated in a CO2 incubator at 37±1° C. for 2 h with 5% CO2 at saturated humidity without shaking. All samples were mixed with acetonitrile containing an internal standard, and centrifuged at 4000 rpm for 10 min. 100 microliters of supernatant was diluted with 100 microliters of distilled water for LC/MS/MS analysis. By LC/MS/MS analysis, the concentrations of the test compounds and the reference compound in the initial test article solution, the test article solution and the test compound solution using the peak area ratio of the analyte to the internal standard. After the transport test, the integrity of the Caco-2 cell monolayer was determined by fluorescein yellow exclusion reaction, and the apparent permeability coefficient and efflux ratio were calculated.
# [1] = Hygroscopicity evaluation by DVS; assay type: physicochemical; settings: 25° C./80% RH, listed as crystal form B of the sulfate
# Protocol: The hygroscopicity of the crystal form B of the sulfate, the crystal form A of the maleate and the crystal form C of the hydrochloride was evaluated by DVS. The water adsorption (second adsorption curve) of the three salt forms at 25° C./80% RH is 7.62%, 1.35% and 4.77% respectively.
# [2] = Dynamic solubility evaluation in water and biological menstruums; assay type: physicochemical; settings: for pH: solubility sample
# Protocol: The dynamic solubility of the crystal form B of the sulfate, the crystal form A of the maleate and the crystal form C of the hydrochloride in water and three biological menstruums was evaluated.
# [3] = Solid state stability (HPLC purity after storage); assay type: physicochemical
# Protocol: The chemical stability of the samples was determined by HPLC after placing the crystal form B of the sulfate, the crystal form A of the maleate and the crystal form C of the hydrochloride at 25° C./60% RH and 40° C./75% RH for 1 week, respectively. For the maleate, additional stability data for one month and two months storage at 25° C./60% RH and 40° C./75% RH (open) were collected, and using the crystal form A of maleate as the starting sample, stability data for 24 hours storage at 60° C. (closed) were collected.
# [4] = FaSSIF, 1 hour, 37° C., feeding 10 mg/mL
# [5] = FaSSIF, 2 hours, 37° C., feeding 10 mg/mL
# [6] = FaSSIF, 4 hours, 37° C., feeding 10 mg/mL
# [7] = FaSSIF, 24 hours, 37° C., feeding 10 mg/mL
# [8] = FeSSIF, 1 hour, 37° C., feeding 10 mg/mL
# [9] = FeSSIF, 2 hours, 37° C., feeding 10 mg/mL
# [10] = FeSSIF, 4 hours, 37° C., feeding 10 mg/mL
# [11] = FeSSIF, 24 hours, 37° C., feeding 10 mg/mL
# [12] = H2O, 1 hour, 37° C., feeding 10 mg/mL
# [13] = H2O, 2 hours, 37° C., feeding 10 mg/mL
# [14] = H2O, 4 hours, 37° C., feeding 10 mg/mL
# [15] = H2O, 24 hours, 37° C., feeding 10 mg/mL
# [16] = SGF, 1 hour, 37° C., feeding 10 mg/mL
# [17] = SGF, 2 hours, 37° C., feeding 10 mg/mL
# [18] = SGF, 4 hours, 37° C., feeding 10 mg/mL
# [19] = SGF, 24 hours, 37° C., feeding 10 mg/mL
compound,measurement,setting,value
C[C@H]1O[C@@H](O[C@H]2[C@@H](O)C[C@H](O[C@H]3[C@@H](O)C[C@H](O[C@H]4CC[C@@]5(C)[C@H](CC[C@@H]6[C@@H]5C[C@@H](O)[C@]5(C)[C@@H](C7=CC(=O)OC7)CC[C@]65O)C4)O[C@@H]3C)O[C@@H]2C)C[C@H](O)[C@@H]1O [Digoxin],"Papp A→B at 2 h, 2 μM",in vitro,0.04 ×10⁻⁶ cm/s
same,"Papp B→A at 2 h, 2 μM",in vitro,13.9 ×10⁻⁶ cm/s
same,"efflux ratio at 2 h, 2 μM",in vitro,349
COCCc1ccc(OCC(O)CNC(C)C)cc1 (centres unmarked) [Metoprolol],"Papp A→B at 2 h, 2 μM",in vitro,18.1 ×10⁻⁶ cm/s
CN(c1ncnc2[nH]ccc12)[C@@H]1CCc2cc(C#N)nn2C1 [Crystal form B of sulfate],water adsorption (second adsorption curve),[1],7.62%
same,S: solubility,[2]; [4],3400 µg/mL
same,S: solubility,[2]; [5],3400 µg/mL
same,S: solubility,[2]; [6],3300 µg/mL
same,S: solubility,[2]; [7],2600 µg/mL
same,S: solubility,[2]; [8],70 µg/mL
same,S: solubility,[2]; [9],70 µg/mL
same,S: solubility,[2]; [10],60 µg/mL
same,S: solubility,[2]; [11],50 µg/mL
same,S: solubility,[2]; [12],3700 µg/mL
same,S: solubility,[2]; [13],3800 µg/mL
same,S: solubility,[2]; [14],3700 µg/mL
same,S: solubility,[2]; [15],4000 µg/mL
same,S: solubility,[2]; [16],5300 µg/mL
same,S: solubility,[2]; [17],5000 µg/mL
same,S: solubility,[2]; [18],4800 µg/mL
same,S: solubility,[2]; [19],5300 µg/mL
same,pH,"[2]; FaSSIF, 1 hour",2.7
same,pH,"[2]; FaSSIF, 2 hours",2.6
same,pH,"[2]; FaSSIF, 4 hours",2.7
same,pH,"[2]; FaSSIF, 24 hours",2.4
same,pH,"[2]; FeSSIF, 1 hour",4.3
same,pH,"[2]; FeSSIF, 2 hours",4.3
same,pH,"[2]; FeSSIF, 4 hours",4.3
same,pH,"[2]; FeSSIF, 24 hours",4.4
same,pH,"[2]; H2O, 1 hour",2.0
same,pH,"[2]; H2O, 2 hours",2.2
same,pH,"[2]; H2O, 4 hours",2.1
same,pH,"[2]; H2O, 24 hours",1.9
same,pH,"[2]; SGF, 1 hour",1.7
same,pH,"[2]; SGF, 2 hours",1.8
same,pH,"[2]; SGF, 4 hours",1.8
same,pH,"[2]; SGF, 24 hours",1.6
same,Purity (area %),"[3]; 25° C./60% RH, 1 week",97.98 area %
same,Purity/Initial Purity (%),"[3]; 25° C./60% RH, 1 week",99.57%
same,Purity (area %),"[3]; 40° C./75% RH, 1 week",98.06 area %
same,Purity/Initial Purity (%),"[3]; 40° C./75% RH, 1 week",99.65%
same,Purity (area %),[3]; Initial,98.40 area %
CN(c1ncnc2[nH]ccc12)[C@@H]1CCc2cc(C#N)nn2C1 [Crystal form C of hydrochloride],S: solubility,[2]; [4],670 µg/mL
same,S: solubility,[2]; [5],640 µg/mL
same,S: solubility,[2]; [6],590 µg/mL
same,S: solubility,[2]; [7],490 µg/mL
same,S: solubility,[2]; [8],20 µg/mL
same,S: solubility,[2]; [9],20 µg/mL
same,S: solubility,[2]; [10],20 µg/mL
same,S: solubility,[2]; [11],10 µg/mL
same,S: solubility,[2]; [12],2700 µg/mL
same,S: solubility,[2]; [13],2400 µg/mL
same,S: solubility,[2]; [14],2300 µg/mL
same,S: solubility,[2]; [15],2000 µg/mL
same,S: solubility,[2]; [16],5600 µg/mL
same,S: solubility,[2]; [17],5300 µg/mL
same,S: solubility,[2]; [18],5100 µg/mL
same,S: solubility,[2]; [19],4300 µg/mL
CN(c1ncnc2[nH]ccc12)[C@@H]1CCc2cc(C#N)nn2C1 [Crystal form A of maleate],S: solubility,[2]; [4],980 µg/mL
same,S: solubility,[2]; [5],960 µg/mL
same,S: solubility,[2]; [6],980 µg/mL
same,S: solubility,[2]; [7],770 µg/mL
same,S: solubility,[2]; [8],60 µg/mL
same,S: solubility,[2]; [9],50 µg/mL
same,S: solubility,[2]; [10],50 µg/mL
same,S: solubility,[2]; [11],30 µg/mL
same,S: solubility,[2]; [15],1700 µg/mL
same,solubility at 1 h,"[2]; SGF, 37 °C, simulated gastric fluid, thermodynamic from solid, SGF, 1 hour, 37° C., feeding 10 mg/mL, read-out: S: solubility",6800 µg/mL
same,solubility at 2 h,"[2]; SGF, 37 °C, simulated gastric fluid, thermodynamic from solid, SGF, 2 hours, 37° C., feeding 10 mg/mL, read-out: S: solubility",6400 µg/mL
same,solubility at 4 h,"[2]; SGF, 37 °C, simulated gastric fluid, thermodynamic from solid, SGF, 4 hours, 37° C., feeding 10 mg/mL, read-out: S: solubility",6600 µg/mL
same,solubility at 24 h,"[2]; SGF, 37 °C, simulated gastric fluid, thermodynamic from solid, SGF, 24 hours, 37° C., feeding 10 mg/mL, read-out: S: solubility",3900 µg/mL
same,solubility at 1 h,"[2]; water, 37 °C, water, thermodynamic from solid, H2O, 1 hour, 37° C., feeding 10 mg/mL, read-out: S: solubility",2900 µg/mL
same,solubility at 2 h,"[2]; water, 37 °C, water, thermodynamic from solid, H2O, 2 hours, 37° C., feeding 10 mg/mL, read-out: S: solubility",2800 µg/mL
same,solubility at 4 h,"[2]; water, 37 °C, water, thermodynamic from solid, H2O, 4 hours, 37° C., feeding 10 mg/mL, read-out: S: solubility",2700 µg/mL
